# Source: article doi:10.1101/2025.08.06.668955, “High-Affinity, Structure-Validated and Selective Macrocyclic Peptide Tools for Chemical Biology Studies of Huntingtin” (bioRxiv, 2025)
# Where a SMILES comes first, the peptide text is derived from it. Bridges are numbered along the chain shown (N, C = ends).
# Test system: HAP40
# Test: Macrocycle precipitation (MP), co-purification of HAP40, LC-MS/MS
# Assay type: binding, human
# Conditions: HEK293T lysate versus HTT CRISPR knockout line
structure (smiles),measurement,value
CC(C)C[C@@H]1NC(=O)[C@H](Cc2ccc(O)cc2)NC(=O)[C@H](CCCNC(=N)N)NC(=O)[C@H](C)NC(=O)[C@H]([C@@H](C)O)NC(=O)[C@H](Cc2ccc(O)cc2)NC(=O)CSC[C@@H](C(N)=O)NC(=O)[C@H](CCCCN)NC(=O)[C@H](Cc2ccc(O)cc2)NC(=O)[C@H](Cc2c[nH]cn2)NC(=O)[C@H](CC(C)C)NC(=O)[C@H]([C@@H](C)O)NC(=O)CNC(=O)[C@H](CC(C)C)NC(=O)[C@H]([C@@H](C)O)NC1=O [HL2] ({CH2CO}-YTARYLTLGTLHYKC-NH2; thioether N-15; C-terminus assumed),Enrichment of HAP40 in macrocycle pulldowns,consistently enriched
